Values after ≈ are worked out from the molar mass of the structure shown.
How the values were obtained:
Assay in all cases: Bacterial growth minimal inhibitory concentration (microdilution, cation-adjusted Mueller-Hinton Broth)
Format in all cases: cell-based
[1] = system: Enterococcus faecium A949; conditions: multiply-resistant strain (in particular quinolone-resistant), read-out: MIC for E. faecium A949
Procedure: (§1) Minimal Inhibitory Concentrations (MICs; mg/L) were determined in cation-adjusted MuellerHinton Broth by a microdilution method following the description given in “Methods for Dilution Antimicrobial Susceptibility Tests for Bacteria that Grow Aerobically”, Approved standard, 7th ed., Clinical and Laboratory Standards Institute (CLSI) Document M7-A7, Wayne, Pa., USA, 2006.
(§2) All Example compounds were tested against several Gram positive and Gram negative bacteria. […] Staphylococcus aureus A798, Enterococcus faecium A949 and Acinetobacter baumanii T6474 are multiply-resistant strains (in particular quinolone-resistant), while Moraxella catarrhalis A894 is a quinolone-sensitive strain and Staphylococcus aureus ATCC29213 is a methicillin-sensitive and quinolone-sensitive strain.

[2] = system: Acinetobacter baumanii T6474; conditions: Acinetobacter baumannii, multiply-resistant strain (in particular quinolone-resistant)
Procedure: as §1, §2

[3] = system: Staphylococcus aureus ATCC29213; conditions: methicillin-sensitive and quinolone-sensitive strain, read-out: MIC for S. aureus ATCC29213
Procedure: as §1, §2

[4] = system: Staphylococcus aureus A798; conditions: multiply-resistant strain (in particular quinolone-resistant), read-out: MIC for S. aureus A798
Procedure: as §1, §2

[5] = system: Moraxella catarrhalis A894; conditions: quinolone-sensitive strain
Procedure: as §1, §2

SMILES	MIC [1] [µg/mL]	MIC [2] [µg/mL]	MIC [3] [µg/mL]	MIC [4] [µg/mL]	MIC [5] [µg/mL]
CCOc1ccc(-n2nc(CCCN[C@H]3Cn4c(=O)ccc5ccc(F)c3c54)oc2=O)cc1 [Example 29, (R)-1-{3-[4-(4-ethoxy-phenyl)-5-oxo-4,5-dihydro-[1,3,4]oxadiazol-2-yl]-propylamino}-9-fluoro-1,2-dihydro-pyrrolo[3,2,1-ij]quinolin-4-one]	> 8	4 (≈ 8.88 µM)	2 (≈ 4.44 µM)	4 (≈ 8.88 µM)	8 (≈ 17.8 µM)
Cc1ccc2ccc(=O)n3c2c1[C@H](NCCCc1nn(-c2ccc4c(n2)NC(=O)CO4)c(=O)o1)C3 [Example 40, (S)-9-methyl-1-{3-[5-oxo-4-(3-oxo-3,4-dihydro-2H-pyrido[3,2-b][1,4]oxazin-6-yl)-4,5-dihydro-[1,3,4]oxadiazol-2-yl]-propylamino}-1,2-dihydro-pyrrolo[3,2,1-ij]quinolin-4-one]	2 (≈ 4.22 µM)	2 (≈ 4.22 µM)	1 (≈ 2.11 µM)	2 (≈ 4.22 µM)	0.5 (≈ 1.05 µM)
O=C1COc2ccc(-n3nc(CCCN[C@@H]4Cn5c(=O)ccc6cccc4c65)oc3=O)nc2N1 [Example 34, (S)-1-{3-[5-oxo-4-(3-oxo-3,4-dihydro-2H-pyrido[3,2-b][1,4]oxazin-6-yl)-4,5-dihydro-[1,3,4]oxadiazol-2-yl]-propylamino}-1,2-dihydro-pyrrolo[3,2,1-ij]quinolin-4-one]	8 (≈ 17.4 µM)	4 (≈ 8.69 µM)	2 (≈ 4.34 µM)	4 (≈ 8.69 µM)	1 (≈ 2.17 µM)
O=C1COc2ccc(-n3nc(CCCN[C@H]4Cn5c(=O)ccc6ccc(F)c4c65)oc3=O)nc2N1 [Example 9, (R)-9-fluoro-1-{3-[5-oxo-4-(3-oxo-3,4-dihydro-2H-pyrido[3,2-b][1,4]oxazin-6-yl)-4,5-dihydro-[1,3,4]oxadiazol-2-yl]-propylamino}-1,2-dihydro-pyrrolo[3,2,1-ij]quinolin-4-one]	0.5 (≈ 1.05 µM)	1 (≈ 2.09 µM)	0.125 (≈ 0.261 µM)	0.25 (≈ 0.523 µM)	0.125 (≈ 0.261 µM)
O=C1COc2ccc(-n3nc(CCCN[C@@H]4Cn5c(=O)ccc6ncc(F)c4c65)oc3=O)nc2N1 [Example 37, (S)-3-fluoro-4-{3-[5-oxo-4-(3-oxo-3,4-dihydro-2H-pyrido[3,2-b][1,4]oxazin-6-yl)-4,5-dihydro-[1,3,4]oxadiazol-2-yl]-propylamino}-4,5-dihydro-pyrrolo[3,2,1-de][1,5]naphthyridin-7-one]	4 (≈ 8.34 µM)	2 (≈ 4.17 µM)	0.25 (≈ 0.521 µM)	0.25 (≈ 0.521 µM)	0.125 (≈ 0.261 µM)
CCSc1ccc(-n2nc(CCCN[C@@H]3Cn4c(=O)cnc5ccc(F)c3c54)oc2=O)cc1 [Example 33, (S)-6-{3-[4-(4-ethylsulfanyl-phenyl)-5-oxo-4,5-dihydro-[1,3,4]oxadiazol-2-yl]-propylamino}-7-fluoro-5,6-dihydro-pyrrolo[1,2,3-de]quinoxalin-3-one]	0.5 (≈ 1.07 µM)	0.25 (≈ 0.535 µM)	0.031 (≈ 0.0663 µM)	0.25 (≈ 0.535 µM)	0.5 (≈ 1.07 µM)
O=C1COc2ccc(-n3nc(CCCN[C@H]4Cn5c(=O)cnc6cccc4c65)oc3=O)nc2N1 [Example 36, (R)-6-{3-[5-oxo-4-(3-oxo-3,4-dihydro-2H-pyrido[3,2-b][1,4]oxazin-6-yl)-4,5-dihydro-[1,3,4]oxadiazol-2-yl]-propylamino}-5,6-dihydro-pyrrolo[1,2,3-de]quinoxalin-3-one]	8 (≈ 17.3 µM)	4 (≈ 8.67 µM)	4 (≈ 8.67 µM)	4 (≈ 8.67 µM)	2 (≈ 4.33 µM)
O=C1COc2ccc(-n3nc(CCCN[C@H]4Cn5c(=O)ccc6ncc(F)c4c65)oc3=O)nc2N1 [Example 38, (R)-3-fluoro-4-{3-[5-oxo-4-(3-oxo-3,4-dihydro-2H-pyrido[3,2-b][1,4]oxazin-6-yl)-4,5-dihydro-[1,3,4]oxadiazol-2-yl]-propylamino}-4,5-dihydro-pyrrolo[3,2,1-de][1,5]naphthyridin-7-one]	4 (≈ 8.34 µM)	2 (≈ 4.17 µM)	0.5 (≈ 1.04 µM)	0.5 (≈ 1.04 µM)	0.5 (≈ 1.04 µM)
O=c1oc(CCCN[C@H]2Cn3c(=O)cnc4ccc(F)c2c43)nn1-c1ccc2c(c1)OCCO2 [Example 25, (R)-6-{3-[4-(2,3-dihydro-benzo[1,4]dioxin-6-yl)-5-oxo-4,5-dihydro-[1,3,4]oxadiazol-2-yl]-propylamino}-7-fluoro-5,6-dihydro-pyrrolo[1,2,3-de]quinoxalin-3-one]	8 (≈ 17.2 µM)	8 (≈ 17.2 µM)	2 (≈ 4.3 µM)	4 (≈ 8.59 µM)	8 (≈ 17.2 µM)
CCSc1ccc(-n2nc(CCCN[C@@H]3Cn4c(=O)ccc5ccc(F)c3c54)oc2=O)cc1 [Example 4, (S)-1-{3-[4-(4-ethylsulfanyl-phenyl)-5-oxo-4,5-dihydro-[1,3,4]oxadiazol-2-yl]-propylamino}-9-fluoro-1,2-dihydro-pyrrolo[3,2,1-ij]quinolin-4-one]	0.5 (≈ 1.07 µM)	8 (≈ 17.1 µM)	0.063 (≈ 0.135 µM)	0.5 (≈ 1.07 µM)	0.5 (≈ 1.07 µM)
CCOc1ccc(-n2nc(CCCN[C@@H]3Cn4c(=O)cnc5ccc(F)c3c54)oc2=O)cc1 [Example 30, (S)-6-{3-[4-(4-ethoxy-phenyl)-5-oxo-4,5-dihydro-[1,3,4]oxadiazol-2-yl]-propylamino}-7-fluoro-5,6-dihydro-pyrrolo[1,2,3-de]quinoxalin-3-one]	8 (≈ 17.7 µM)	4 (≈ 8.86 µM)	1 (≈ 2.22 µM)	4 (≈ 8.86 µM)	8 (≈ 17.7 µM)
O=c1oc(CCCN[C@@H]2Cn3c(=O)ccc4ccc(F)c2c43)nn1-c1ccc2c(c1)OCCO2 [Example 22, (S)-1-{3-[4-(2,3-dihydro-benzo[1,4]dioxin-6-yl)-5-oxo-4,5-dihydro-[1,3,4]oxadiazol-2-yl]-propylamino}-9-fluoro-1,2-dihydro-pyrrolo[3,2,1-ij]quinolin-4-one]	> 8	8 (≈ 17.2 µM)	4 (≈ 8.61 µM)	> 8	4 (≈ 8.61 µM)

Other lines, results leading:

MIC [1] [µg/mL]	MIC [2] [µg/mL]	MIC [3] [µg/mL]	MIC [4] [µg/mL]	MIC [5] [µg/mL]	SMILES
0.25 (≈ 0.557 µM)	> 8	0.063 (≈ 0.14 µM)	0.25 (≈ 0.557 µM)	2 (≈ 4.46 µM)	CC(C)c1ccc(-n2nc(CCCN[C@@H]3Cn4c(=O)ccc5ccc(F)c3c54)oc2=O)cc1 [Example 3, (S)-9-fluoro-1-{3-[4-(4-isopropyl-phenyl)-5-oxo-4,5-dihydro-[1,3,4]oxadiazol-2-yl]-propylamino}-1,2-dihydro-pyrrolo[3,2,1-ij]quinolin-4-one]
0.5 (≈ 1.03 µM)	0.125 (≈ 0.257 µM)	0.063 (≈ 0.13 µM)	0.125 (≈ 0.257 µM)	0.063 (≈ 0.13 µM)	N#Cc1ccc2ccc(=O)n3c2c1[C@H](NCCCc1nn(-c2ccc4c(n2)NC(=O)CO4)c(=O)o1)C3 [Example 41, (S)-4-oxo-1-{3-[5-oxo-4-(3-oxo-3,4-dihydro-2H-pyrido[3,2-b][1,4]oxazin-6-yl)-4,5-dihydro-[1,3,4]oxadiazol-2-yl]-propylamino}-1,2-dihydro-4H-pyrrolo[3,2,1-ij]quinoline-9-carbonitrile]
0.5 (≈ 1.07 µM)	4 (≈ 8.56 µM)	0.031 (≈ 0.0663 µM)	0.063 (≈ 0.135 µM)	0.25 (≈ 0.535 µM)	CCSc1ccc(-n2nc(CCCN[C@H]3Cn4c(=O)cnc5ccc(F)c3c54)oc2=O)cc1 [Example 5, (R)-6-{3-[4-(4-ethylsulfanyl-phenyl)-5-oxo-4,5-dihydro-[1,3,4]oxadiazol-2-yl]-propylamino}-7-fluoro-5,6-dihydro-pyrrolo[1,2,3-de]quinoxalin-3-one]
0.5 (≈ 1.11 µM)	2 (≈ 4.46 µM)	0.125 (≈ 0.279 µM)	0.5 (≈ 1.11 µM)	0.5 (≈ 1.11 µM)	CCCc1ccc(-n2nc(CCCN[C@H]3Cn4c(=O)ccc5ccc(F)c3c54)oc2=O)cc1 [Example 26, (R)-9-fluoro-1-{3-[5-oxo-4-(4-propyl-phenyl)-4,5-dihydro-[1,3,4]oxadiazol-2-yl]-propylamino}-1,2-dihydro-pyrrolo[3,2,1-ij]quinolin-4-one]
0.25 (≈ 0.524 µM)	0.25 (≈ 0.524 µM)	0.031 (≈ 0.0649 µM)	0.063 (≈ 0.132 µM)	≤ 0.016	O=C1COc2ccc(-n3nc(CCCN[C@@H]4Cn5c(=O)ccc6ccc(F)c4c65)oc3=O)cc2N1 [Example 11, (S)-9-fluoro-1-{3-[5-oxo-4-(3-oxo-3,4-dihydro-2H-benzo[1,4]oxazin-6-yl)-4,5-dihydro-[1,3,4]oxadiazol-2-yl]-propylamino}-1,2-dihydro-pyrrolo[3,2,1-ij]quinolin-4-one]
0.25 (≈ 0.505 µM)	0.25 (≈ 0.505 µM)	0.031 (≈ 0.0626 µM)	0.063 (≈ 0.127 µM)	≤ 0.016	O=C1CSc2ccc(-n3nc(CCCN[C@@H]4Cn5c(=O)cnc6ccc(F)c4c65)oc3=O)nc2N1 [Example 18, (S)-7-fluoro-6-{3-[5-oxo-4-(3-oxo-3,4-dihydro-2H-pyrido[3,2-b][1,4]-thiazin-6-yl)-4,5-dihydro-[1,3,4]oxadiazol-2-yl]-propylamino}-5,6-dihydro-pyrrolo[1,2,3-de]quinoxalin-3-one]
0.25 (≈ 0.524 µM)	0.25 (≈ 0.524 µM)	0.031 (≈ 0.0649 µM)	0.031 (≈ 0.0649 µM)	≤ 0.016	O=C1COc2ccc(-n3nc(CCCN[C@H]4Cn5c(=O)ccc6ccc(F)c4c65)oc3=O)cc2N1 [Example 12, (R)-9-fluoro-1-{3-[5-oxo-4-(3-oxo-3,4-dihydro-2H-benzo[1,4]oxazin-6-yl)-4,5-dihydro-[1,3,4]oxadiazol-2-yl]-propylamino}-1,2-dihydro-pyrrolo[3,2,1-ij]quinolin-4-one]
